# Laboratory results: publication PMC6544261, “A novel thermostable and halophilic thioredoxin reductase from the Red Sea Atlantis II hot brine pool” (PLoS ONE, 2019)
# Target: T1, ATII-TrxR (Cupriavidus basilensis, UniProt A0A643FQQ5)
# T1 construct: codon-optimised synthetic gene in pET-28a(+), His-tagged, E. coli BL21(DE3), HisTrap; dimer
# T1 sequence (A0A643FQQ5 1-552): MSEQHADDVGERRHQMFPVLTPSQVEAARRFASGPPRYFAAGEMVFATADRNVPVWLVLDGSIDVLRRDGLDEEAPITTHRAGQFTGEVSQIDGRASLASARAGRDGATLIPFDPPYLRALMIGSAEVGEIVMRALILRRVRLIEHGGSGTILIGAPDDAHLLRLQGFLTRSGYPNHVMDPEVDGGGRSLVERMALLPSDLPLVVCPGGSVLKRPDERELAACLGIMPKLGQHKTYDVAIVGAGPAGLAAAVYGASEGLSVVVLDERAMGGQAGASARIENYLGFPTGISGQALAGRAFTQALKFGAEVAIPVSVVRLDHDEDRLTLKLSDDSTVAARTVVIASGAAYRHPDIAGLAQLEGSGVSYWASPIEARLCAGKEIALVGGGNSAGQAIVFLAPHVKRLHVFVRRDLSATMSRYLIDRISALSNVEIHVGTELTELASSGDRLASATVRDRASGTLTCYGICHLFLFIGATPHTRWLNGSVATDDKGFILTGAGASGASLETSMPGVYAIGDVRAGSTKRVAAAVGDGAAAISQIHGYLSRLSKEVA
# Assay: flavin absorbance at […] nm, co-elution of […] and […] nm peaks
# Format: binding
# Settings: cofactor bound to enzyme as purified
compound,measurement,value
Cc1cc2nc3c(=O)[nH]c(=O)nc-3n(C[C@H](O)[C@H](O)[C@H](O)COP(=O)(O)OP(=O)(O)OC[C@H]3O[C@@H](n4cnc5c(N)ncnc54)[C@H](O)[C@@H]3O)c2cc1C [FAD],mol FAD/mol native enzyme,The binding of ATII-TrxR protein to the cofactor FAD was confirmed
